Data reported in ChEMBL document CHEMBL5034023, “Development of Multifunctional and Orally Active Cyclic Peptide Agonists of Opioid/Neuropeptide FF Receptors that Produce Potent, Long-Lasting, and Peripherally Restricted Antinociception with Diminished Side Effects” (J Med Chem, 2021).
Active and inactive are the calls of the source. No cut-off for these calls is given here. Bridge positions count the residues as written; N and C are the ends. Square brackets hold non-standard residues; d marks the D form. Peptide text beside a SMILES is read from it. NMeF = CN[C@@H](Cc1ccccc1)C(=O)O; dDap = NC[C@@H](N)C(=O)O

Assays:
[1] = target: Kappa-type opioid receptor (Homo sapiens, UniProt P41145); type: functional, cell-based, HEK293-A
[2] = target: T1, Delta-type opioid receptor (Homo sapiens, UniProt P41143); assay: Agonist activity at DOR (unknown origin) expressed in HEK293-A cells assessed as inhibition of forskolin-induced cAMP accumulation preincubated for 30 mins in presence of 3-isobutyl-1-methylxanthine followed by forskolin and compound addition by competitive PKA binding assay; type: functional, cell-based
[3] = target: T1, Delta-type opioid receptor; assay: (§1) Agonist activity at DOR (unknown origin) expressed in HEK293-A cells assessed as inhibition of forskolin-induced cAMP accumulation preincubated for 30 mins in presence of 3-isobutyl-1-methylxanthine followed by forskolin and compound addition by competitive PKA binding assay relative to control; type: functional, cell-based; settings: filed as agonist
[4] = target: T2, Neuropeptide FF receptor 1 (Homo sapiens, UniProt Q9GZQ6); assay: Agonist activity at NPFF1R (unknown origin) expressed in HEK293-A cells assessed as inhibition of forskolin-induced cAMP accumulation preincubated for 30 mins in presence of 3-isobutyl-1-methylxanthine followed by forskolin and compound addition by competitive PKA binding assay; type: functional, cell-based
[5] = target: T2, Neuropeptide FF receptor 1; assay: as §1, with “NPFF1R” for “DOR”, “accumulation by measuring maximal efficacy” for “accumulation”; type: functional, cell-based; settings: filed as agonist
[6] = target: T3, Neuropeptide FF receptor 2 (Homo sapiens, UniProt Q9Y5X5); assay: Agonist activity at NPFF2R (unknown origin) expressed in HEK293-A cells assessed as inhibition of forskolin-induced cAMP accumulation preincubated for 30 mins in presence of 3-isobutyl-1-methylxanthine followed by forskolin and compound addition by competitive PKA binding assay; type: functional, cell-based
[7] = target: T3, Neuropeptide FF receptor 2; assay: as §1, with “NPFF2R” for “DOR”, “accumulation by measuring maximal efficacy” for “accumulation”; type: functional, cell-based; settings: filed as agonist
[8] = Metabolic stability in mouse plasma assessed as degradation half life at 0.01 M measured up to 360 mins; type: ADME, cell-free
Mus musculus [9] = assay: Antinociceptive activity against Kunming mouse model of thermal-induced nociception assessed as peripheral analgesia administered subcutaneously by tail-flick test; type: functional; settings: sc
Mus musculus [10] = assay: Antinociceptive activity against Kunming mouse model of thermal-induced nociception assessed as duration of analgesic effect administered subcutaneously by tail-flick test; type: functional
Mus musculus [11] = assay: Potency index, ratio of test compound ED50 to DN-9 ED50 for antinociceptive activity against Kunming mouse model of thermal-induced nociception assessed as peripheral analgesia administered subcutaneously by tail-flick test; type: functional
Mus musculus [12] = assay: Antinociceptive activity in Kunming mouse assessed as analgesic tolerance administered subcutaneously once daily for 8 days by tail flick test; type: functional, organism-based; settings: time 8.0 day
Mus musculus [13] = assay: Antinociceptive activity against Kunming mouse model of thermal-induced nociception assessed as maximum possible effect at 90.1 nmol/kg, po measured after 20 min by tail flick test relative to control; type: functional
Mus musculus [14] = assay: Antinociceptive activity against Kunming mouse model of thermal-induced nociception assessed as maximum possible effect at 90.1 nmol/kg, po measured after 30 min by tail flick test relative to control; type: functional; settings: 0.5 h
Mus musculus [15] = assay: Antinociceptive activity against Kunming mouse model of thermal-induced nociception assessed as maximum possible effect at 90.1 nmol/kg, po measured after 60 min by tail flick test relative to control; type: functional; settings: 1 h
Mu-type opioid receptor = Mu-type opioid receptor (Homo sapiens, UniProt P35372)
Chain of Mu-type opioid receptor (P35372 whole entry): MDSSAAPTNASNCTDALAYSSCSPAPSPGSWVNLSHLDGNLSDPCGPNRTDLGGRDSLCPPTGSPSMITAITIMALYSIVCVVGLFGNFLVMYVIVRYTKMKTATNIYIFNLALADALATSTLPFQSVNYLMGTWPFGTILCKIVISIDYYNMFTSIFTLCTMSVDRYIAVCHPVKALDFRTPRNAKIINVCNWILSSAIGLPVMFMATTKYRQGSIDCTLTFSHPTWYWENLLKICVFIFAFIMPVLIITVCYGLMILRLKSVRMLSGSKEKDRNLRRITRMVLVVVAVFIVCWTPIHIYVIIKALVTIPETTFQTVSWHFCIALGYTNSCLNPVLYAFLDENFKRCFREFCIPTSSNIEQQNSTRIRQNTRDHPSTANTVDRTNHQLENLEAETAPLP

T3 sequence (Q9Y5X5 whole entry): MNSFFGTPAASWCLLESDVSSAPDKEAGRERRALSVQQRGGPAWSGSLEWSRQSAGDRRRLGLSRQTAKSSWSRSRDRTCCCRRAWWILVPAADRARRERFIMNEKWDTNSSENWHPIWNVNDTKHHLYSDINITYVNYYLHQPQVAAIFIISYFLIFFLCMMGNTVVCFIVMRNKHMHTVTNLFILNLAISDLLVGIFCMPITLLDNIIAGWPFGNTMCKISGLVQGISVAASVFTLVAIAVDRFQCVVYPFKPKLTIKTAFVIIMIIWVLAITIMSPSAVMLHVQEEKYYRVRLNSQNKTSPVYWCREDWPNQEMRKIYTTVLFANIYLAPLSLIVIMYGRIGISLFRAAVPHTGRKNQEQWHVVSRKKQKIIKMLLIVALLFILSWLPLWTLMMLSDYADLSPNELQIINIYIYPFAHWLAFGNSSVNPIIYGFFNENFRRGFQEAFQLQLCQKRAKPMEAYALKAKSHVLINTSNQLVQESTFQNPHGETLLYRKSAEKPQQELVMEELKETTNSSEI
T1 sequence (P41143 whole entry): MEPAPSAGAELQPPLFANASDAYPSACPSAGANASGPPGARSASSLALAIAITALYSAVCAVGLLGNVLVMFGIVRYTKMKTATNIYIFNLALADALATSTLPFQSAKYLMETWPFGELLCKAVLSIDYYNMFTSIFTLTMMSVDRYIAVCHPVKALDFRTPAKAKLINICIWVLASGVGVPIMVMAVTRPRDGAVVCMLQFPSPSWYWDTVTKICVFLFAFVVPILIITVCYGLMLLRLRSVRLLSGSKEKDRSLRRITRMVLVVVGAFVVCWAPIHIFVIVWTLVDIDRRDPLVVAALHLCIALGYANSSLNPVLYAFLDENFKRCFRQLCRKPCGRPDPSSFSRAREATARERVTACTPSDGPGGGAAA
T2 sequence (Q9GZQ6 whole entry): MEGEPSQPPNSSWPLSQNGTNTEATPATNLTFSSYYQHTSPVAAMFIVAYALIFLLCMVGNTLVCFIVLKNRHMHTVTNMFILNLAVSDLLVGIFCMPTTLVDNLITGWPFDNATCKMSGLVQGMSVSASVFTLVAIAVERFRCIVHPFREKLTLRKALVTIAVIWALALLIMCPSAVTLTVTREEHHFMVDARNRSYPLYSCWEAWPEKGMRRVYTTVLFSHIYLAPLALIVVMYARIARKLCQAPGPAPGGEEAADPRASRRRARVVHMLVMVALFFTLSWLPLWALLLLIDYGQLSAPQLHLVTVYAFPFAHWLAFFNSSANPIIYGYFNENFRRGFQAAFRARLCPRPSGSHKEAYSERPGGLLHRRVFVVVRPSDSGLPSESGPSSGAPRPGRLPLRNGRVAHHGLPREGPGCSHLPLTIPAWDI
Chain of Kappa-type opioid receptor (P41145 whole entry): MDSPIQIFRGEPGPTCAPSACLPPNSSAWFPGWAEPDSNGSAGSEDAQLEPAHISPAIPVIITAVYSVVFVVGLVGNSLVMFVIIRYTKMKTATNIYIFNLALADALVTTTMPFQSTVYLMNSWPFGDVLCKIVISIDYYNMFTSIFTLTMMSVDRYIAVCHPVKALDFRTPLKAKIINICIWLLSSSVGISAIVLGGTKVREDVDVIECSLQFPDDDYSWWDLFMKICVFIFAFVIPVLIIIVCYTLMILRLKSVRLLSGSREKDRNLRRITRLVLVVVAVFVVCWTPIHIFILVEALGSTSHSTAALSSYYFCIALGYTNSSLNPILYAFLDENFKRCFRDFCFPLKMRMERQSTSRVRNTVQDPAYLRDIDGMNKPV

Compound: CN1C(=O)CNC(=O)[C@H](NC(=O)[C@@H](N)Cc2ccc(O)cc2)CNC(=O)C[C@@H](C(=O)N2CCC[C@H]2C(=O)N[C@@H](CCC(N)=O)C(=O)N[C@@H](CCCNC(=N)N)C(=O)N[C@@H](Cc2ccccc2)C(N)=O)NC(=O)[C@@H]1Cc1ccccc1 (H-Y[dDap]G[NMeF]DPQRF-NH2; lactam 2-5)
- EC50 [1]: 136 nM
- EC50 [2]: 374 nM
- Emax [3]: 48%
- EC50 [4]: 90.1 nM
- Emax [5]: 47.5%
- EC50 ([6]; read-out: EC50): 349 nM
- EC50 ([6]; read-out: pEC50 (converted)): 355 nM
- Emax [7]: 63.9%
- half-life at 10000 µM [8]: 1.09 h
- ED50 (Mus musculus [9]): 0.0135 µmol/kg
- Tlast (Mus musculus [10]): 240 min
- Ratio ED50 (Mus musculus [11]): 16
- Activity (Mus musculus [12]): inactive
- MPE (Mus musculus [13]): 93.2%
- MPE (Mus musculus [14]): 97.5%
- MPE (Mus musculus [15]): 80.8%
- EC50 (Mu-type opioid receptor): 238 nM
